The results in this text go back to US10745397B2, “1-Substituted 1,2,3,4-tetrahydro-1,7-naphthyridin-8-amine derivatives and their use as EP4 receptor antagonists” (TAKEDA PHARMACEUTICAL COMPANY LIMITED, priority 2015, dated 2020).

As usually defined, the inhibition is how much of the control response was suppressed. A low value points to a weak effect.

Assay [1] has as its target T1, human EP4 receptor (Homo sapiens, UniProt P35408).
T1 construct: expressed in transfected cells; host or cells: FreeStyle293 (HEK293F) cells, transient transfection with pcDNA3.1(+), total membrane fraction
Kind of assay: hEP4 radioligand binding assay ([3H] PGE2 competitive binding, membrane fractions). Conditions: 1 nM [3H] PGE2; for inhibition at 0.3 µM: 300 nM compound; for inhibition at 1 µM: 1 μM compound. The source says: The full-length coding sequences for human EP1 (NM_000955), human EP2 (NM_000956), human EP3 (NM_198717) and human EP4 (NM_000958) were cloned into pcDNA3.1(+) vector (Life Technologies, CA, USA). In order to prepare overexpressed EP 1-4 membrane in Freestyle293 cells (Life Technologies, CA, USA), the pcDNA3.1(+) vector encoding a cDNA of the relevant gene was transiently transfected into FreeStyle293 cells using 293Fectin (Life Technologies, CA, USA) according to the manufacturer instruction manual. After 2 days, cultured cells were centrifuged (1,000×g, 10 min, 4° C.) and pellets homogenized by a probe sonicator (Sonics vibracell, Sonics and Materials Inc., USA; 31% Amp, 5 sec pulse, Imin interval, 4 cycles) in ice-cold 50 mM Tris-HCl buffer (pH 7.5 at 25° C.) containing 0.5 mM EDTA, 250 mM Sucrose and 10 mM MgCl2. Cell homogenates were centrifuged (890×g, 10 min, 4° C.), and the supernatant was recovered. Total membrane fractions were isolated by ultracentrifugation (140,000×g, 60 min, 4° C.). Pellets were re-suspended in the same buffer, and stored at −80° C. until use. The protein concentration in homogenate was determined with the BCA Protein Assay Kit (Pierce Biotechnology, Inc., IL, USA) according to the manufacturer protocol.
The binding affinity of the compounds was evaluated using a competitive radioligand binding assay which measured the specific binding of [3H] PGE2 to the human EP4 receptor. Briefly, varying concentrations of NCEs were incubated with cell membrane fractions generated HEK293F cells transiently transfected with human EP4 receptor as described above. Each reaction consisted of 10 μg membrane protein and NCE in 50 mM Tris-HCl, pH-6.0 by NaOH, 10 mM MgCl2 and 0.5 mM EDTA assay buffer. Radioligand, [3H] PGE2 (American Radiochemicals Inc. Specific Activity 180 Ci/mmol), at a final of 1 nM was added to each reaction where the final assay volume was 200 μL and concentration of DMSO was adjusted to 1%. Appropriate controls included total binding in the assay (vehicle control) and control for non-specific binding. Non-specific binding was evaluated by incubating the hEP4 protein with 10 μM unlabeled PGE2 under the same assay conditions as NCEs. The reaction was incubated at room temperature for 2 hours and terminated by harvesting the reaction contents to a PEI coated GF/C filter plate (PerkinElmer). The plate was washed four times with cold 50 mM Tris-HCl, pH-7.5 wash buffer and dried at 50° C. for 2 hours or at 37° C. overnight. [3H] PGE2 bound to the protein was quantified by the addition of 25 μL of Microscint PS (PerkinElmer) and plate was read on MicroBeta2 liquid Scintillation and luminescence counter (PerkinElmer). Data was analyzed using GraphPad Prism 5 (GraphPad Software Inc., San Diego, Calif.) where non-specific binding was normalized to 0% specific binding of [3]PGE2 and vehicle control (DMSO) was normalized to 100% specific binding of [3]PGE2. Binding affinity of NCEs, Ki, was generated using One site—Fit Ki equation in GraphPad Prism 5.

The target of assay [2] is T2, hEP4 (C6 glioma cells overexpressing hEP4) (Homo sapiens, UniProt P35408).
T2 construct: host or cells: C6 glioma cells overexpressing hEP4
T2 sequence (P35408 whole entry): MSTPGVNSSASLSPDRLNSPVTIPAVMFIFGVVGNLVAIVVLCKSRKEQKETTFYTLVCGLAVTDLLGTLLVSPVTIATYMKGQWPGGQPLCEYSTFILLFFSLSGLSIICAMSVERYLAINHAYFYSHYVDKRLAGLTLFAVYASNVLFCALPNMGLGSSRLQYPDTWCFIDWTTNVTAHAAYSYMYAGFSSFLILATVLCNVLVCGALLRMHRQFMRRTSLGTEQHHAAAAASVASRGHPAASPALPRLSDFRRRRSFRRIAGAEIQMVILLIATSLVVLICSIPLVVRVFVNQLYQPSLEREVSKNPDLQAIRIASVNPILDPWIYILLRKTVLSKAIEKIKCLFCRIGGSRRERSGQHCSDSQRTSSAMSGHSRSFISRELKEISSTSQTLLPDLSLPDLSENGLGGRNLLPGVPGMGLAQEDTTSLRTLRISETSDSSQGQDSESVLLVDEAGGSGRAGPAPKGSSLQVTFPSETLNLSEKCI
The assay is described as follows: hEP4 cell based assay (cAMP), inhibition of PGE2 induced cAMP, HTRF. The settings on record: 1 μM compound, PGE2 at EC80. On the procedure:
The functional assay for hEP4 activation and inhibition was carried out via the quantitative determination of agonist, PGE2, induced cAMP response using HTRF in a competitive immunoassay (Cisbio dynamic 2 kit). NCEs at varying concentrations were evaluated for inhibition of PGE2 induced increase in cAMP. Briefly, C6 glioma cells overexpressing hEP4 (Takeda) were cultured in DMEM (low glucose, pyruvate), 10% FBS (Gibco) and PenStep. The cells were harvested on the day of the assay, washed with HBSS+10 mM HEPES (pH 7.4)+0.1% BSA buffer and pre-incubated with varying concentrations of NCE. Each reaction contained 7000 cells and NCEs in HBSS+10 mM HEPES+0.1% BSA assay buffer along with PDE inhibitors IBMX and Ro 20-1724 (final concentration of each inhibitor […]). Following 15 min pre-incubation, the cells were treated with EC80 concentration of agonist PGE2 for 30 min to induce cAMP. Final volume of the assay was 6 μL and DMSO concentration was maintained at 1%. The reaction was terminated with the addition of cAMP labeled with the dye d2 in lysis buffer according to manufacturers' protocol. This was followed by the addition of the anti-cAMP antibody labeled with Cryptate according to the manufacturers' protocol. The reaction was incubated at room temperature in dark for 45 min and the plate was evaluated for fluorescence at 665 nm (FRET) and 620 nm (cryptate emission) on a Flexstation III microplate reader (Molecular Devices, Sunnyvale, Calif.) Ex max: 313 nm; Em1: 620 nm; Em2: 665 nm. Data was analyzed using GraphPad Prism 5 (GraphPad Software Inc., San Diego, Calif.) where cells treated with agonist (EC80) was normalized to 0% inhibition of hEP4 and cells treated with buffer (no agonist) was normalized to 100% inhibition of hEP4. IC50 of NCEs was generated using non-linear regression—Log(inhibitor) vs. response equation in GraphPad Prism 5.
For orientation: Time-resolved FRET reads energy transfer from a long-lived donor to a nearby acceptor.

T1 sequence (P35408 whole entry): as above

For the compound `C[C@H](Nc1nccc2c1N(CCc1cccc(Cl)c1)CCO2)c1ccc(C(=O)O)cc1` [Example B40, 4-[(1S)-1-[[4-[2-(3-chlorophenyl)ethyl]-2,3-dihydropyrido[4,3-b][1,4]oxazin-5-yl]amino]ethyl]benzoic acid], the inhibition at 0.3 µM in assay [1] worked out at 80%. This compound had an inhibition at 1 µM in assay [2] of 85%.
In turn, `COC(=O)c1ccc([C@H](C)Nc2ncnc3c2N(Cc2cccc(Cl)c2)C(=O)CO3)cc1` [Example A46, methyl 4-[(1S)-1-[[5-[(3-chlorophenyl)methyl]-6-oxo-pyrimido[4,5-b][1,4]oxazin-4-yl]amino]ethyl]benzoate] came in with an inhibition at 0.3 µM in assay [1] of 12%.
Consider `C[C@H](Nc1nccc2c1N(Cc1ccc3ccccc3c1)CCO2)c1ccc(C(=O)O)cc1` [Example B29, 4-[(1S)-1-[[4-(2-naphthylmethyl)-2,3-dihydropyrido[4,3-b][1,4]oxazin-5-yl]amino]ethyl]benzoic acid], for which the inhibition at 0.3 µM in assay [1] was determined as 100%. In addition, the inhibition at 1 µM in assay [2] is 96%.
With `C[C@H](Nc1nccc2c1N(Cc1ccc(F)c(F)c1)CCC2)c1ccc(C(=O)O)cc1` [Example B44, 4-[(1S)-1-[[1-[(3,4-difluorophenyl)methyl]-3,4-dihydro-2H-1,7-naphthyridin-8-yl]amino]ethyl]benzoic acid], the inhibition at 0.3 µM in assay [1] came to 93%. The compound also had an inhibition at 1 µM in assay [2] of 92%.
Consider `C[C@H](Nc1nccc2c1N(Cc1ccc(C(F)(F)F)cc1)C(=O)CS2)c1ccc(C(=O)O)cc1` [Example B36, 4-[(1S)-1-[[3-oxo-4-[[4-(trifluoromethyl)phenyl]methyl]pyrido[4,3-b][1,4]thiazin-5-yl]amino]ethyl]benzoic acid], for which the inhibition at 0.3 µM in assay [1] stood at 49%.
As for `COc1ccc(CNc2nccc3c2N(Cc2ccc(F)c(F)c2)CCO3)cc1` [Example A49, 4-[(3,4-difluorophenyl)methyl]-N-[(4-methoxyphenyl)methyl]-2,3-dihydropyrido[4,3-b][1,4]oxazin-5-amine], the inhibition at 0.3 µM in assay [1] is 17%.
`C[C@H](Nc1nccc2c1N(Cc1ccc(C(F)(F)F)cc1)CCO2)c1ccc(-c2nnn[nH]2)cc1` [Example F1, N-[(1S)-1-[4-(1H-Tetrazol-5-yl)phenyl]ethyl]-4-[[4-(trifluoromethyl)phenyl]methyl]-2,3-dihydropyrido[4,3-b][1,4]oxazin-5-amine] returned an inhibition at 0.3 µM in assay [1] of 100%. For the same compound, the inhibition at 1 µM in assay [2] amounted to 90%.
The compound `Cc1noc(C)c1CN1CCOc2ccnc(N[C@@H](C)c3ccc(C(=O)O)cc3)c21` [Example B41, 4-[(1S)-1-[[4-[(3,5-dimethylisoxazol-4-yl)methyl]-2,3-dihydropyrido[4,3-b][1,4]oxazin-5-yl]amino]ethyl]benzoic acid] returned an inhibition at 0.3 µM in assay [1] of 47%.
The compound `C[C@H](Nc1ncc(C2CC2)c2c1N(Cc1cccc(C(F)(F)F)c1)CCO2)c1ccc(C(=O)O)cc1` [Example B47, 4-[(1S)-1-[[8-cyclopropyl-4-[[3-(trifluoromethyl)phenyl]methyl]-2,3-dihydropyrido[4,3-b][1,4]oxazin-5-yl]amino]ethyl]benzoic acid] came in with an inhibition at 0.3 µM in assay [1] of 60%.
Still for that read-out and setting: the value for `C[C@H](Nc1nccc2c1N(Cc1ccccn1)CCO2)c1ccc(C(=O)O)cc1` [Example B27, 4-[(1S)-1-[[4-(2-pyridylmethyl)-2,3-dihydropyrido[4,3-b][1,4]oxazin-5-yl]amino]ethyl]benzoic acid] was 42%; that for `COC(=O)c1ccc([C@H](C)Nc2nccc3c2N(C(=O)c2ccc(C(F)(F)F)cc2)CCO3)cc1` [Example A48, methyl 4-[(1S)-1-[[4-[4-(trifluoromethyl)benzoyl]-2,3-dihydropyrido[4,3-b][1,4]oxazin-5-yl]amino]ethyl]benzoate] was 28%; that for `C[C@H](Nc1ncnc2c1N(Cc1cccc(Cl)c1)CCO2)c1ccc(C(=O)O)cc1` [Example B38, 4-[(1S)-1-[[5-[(3-chlorophenyl)methyl]-6,7-dihydropyrimido[4,5-b][1,4]oxazin-4-yl]amino]ethyl]benzoic acid] was 88%.
The compound `Cc1cccnc1CNc1nccc2c1N(Cc1ccc(F)c(F)c1)CCO2` [Example A50, 4-[(3,4-difluorophenyl)methyl]-N-[(3-methyl-2-pyridyl)methyl]-2,3-dihydropyrido[4,3-b][1,4]oxazin-5-amine] displayed an inhibition at 0.3 µM in assay [1] of 26%.
In the case of `C[C@H](Nc1nccc2c1N(Cc1ccc(C(F)(F)F)cc1)CCN2C)c1ccc(C(=O)O)cc1` [Example B35, 4-[(1S)-1-[[1-methyl-4-[[4-(trifluoromethyl)phenyl]methyl]-2,3-dihydropyrido[3,4-b]pyrazin-5-yl]amino]ethyl]benzoic acid], the inhibition at 0.3 µM in assay [1] was determined as 42.4%.
In turn, `C[C@H](Nc1nccc2c1N(Cc1cccc(Cl)c1)CCN2C)c1ccc(C(=O)O)cc1` [Example B34, 4-[(1S)-1-[[4-[(3-chlorophenyl)methyl]-1-methyl-2,3-dihydropyrido[3,4-b]pyrazin-5-yl]amino]ethyl]benzoic acid] registered an inhibition at 0.3 µM in assay [1] of 42.5%.
For `C[C@H](Nc1nccc2c1N(Cc1ccc(F)c(F)c1)C(=O)CS2)c1ccc(C(=O)O)cc1` [Example B42, 4-[(1S)-1-[[4-[(3,4-difluorophenyl)methyl]-3-oxopyrido[4,3-b][1,4]thiazin-5-yl]amino]ethyl]benzoic acid], in assay [1], testing at 0.3 µM gave an inhibition of 0.3% and the inhibition at 1 µM was 26%.
`Fc1ccc(CN2CCOc3ccnc(NCC4CCCCC4)c32)cc1F` [Example A51, N-(cyclohexylmethyl)-4-[(3,4-difluorophenyl)methyl]-2,3-dihydropyrido[4,3-b][1,4]oxazin-5-amine] had an inhibition at 1 µM in assay [1] of 29%.
Regarding `C[C@H](Nc1nccc2c1N(Cc1cccnc1)CCO2)c1ccc(C(=O)O)cc1` [Example B28, 4-[(1S)-1-[[4-(3-pyridylmethyl)-2,3-dihydropyrido[4,3-b][1,4]oxazin-5-yl]amino]ethyl]benzoic acid], testing at 0.3 µM in assay [1] gave an inhibition of 49%.
The compound `COC(=O)c1ccc(C2(Nc3nccc4c3N(Cc3ccc(F)c(F)c3)C(=O)CO4)CC2)cc1` [Example A47, methyl 4-[1-[[4-[(3,4-difluorophenyl)methyl]-3-oxopyrido[4,3-b][1,4]oxazin-5-yl]amino]cyclopropyl]benzoate] showed an inhibition at 0.3 µM in assay [1] of 12%.
In assay [1], `C[C@H](Nc1nccc2c1N(Cc1cccc(Cl)c1)C(=O)CS2)c1ccc(C(=O)O)cc1` [Example B43, 4-[(1S)-1-[[4-[(3-chlorophenyl)methyl]-3-oxopyrido[4,3-b][1,4]thiazin-5-yl]amino]ethyl]benzoic acid] gave an inhibition at 0.3 µM of 10%.
